Laboratory results as given in ChEMBL document CHEMBL1124807, “Syntheses and platelet aggregation inhibitory and antithrombotic properties of [2-[(omega-aminoalkoxy)phenyl]ethyl]benzenes” (J Med Chem, 1990).

Legend:
[1] = target: T1, Serotonin 2 (5-HT2) receptor (Rattus norvegicus, UniProt P30994+P08909+P14842); assay: Inhibition of 5-hydroxytryptamine 2 induced vasoconstriction of rat caudal artery.; type: tissue-based
[2] = target: T1, Serotonin 2 (5-HT2) receptor; assay: Antagonistic activity against 5-hydroxytryptamine 2 receptor on rat frontal cortex membrane.; type: functional, tissue-based
[3] = organism: Oryctolagus cuniculus; assay: In vitro inhibition of collagen induced platelet aggregation of rabbit platelet rich plasma; type: functional
[4] = test system: Mus musculus; assay: In vivo antithrombotic activity in mice following p.o. administration.; type: functional; settings: po, read-out: PD50
[5] = test system: Mus musculus; assay: In vivo antithrombotic activity in mice (po); type: functional; settings: read-out: PD50

Row | Ki [1] [nM] | IC50 [2] [nM] | IC50 ([3]; read-out: IC50) [nM] | Compound | ED50 [4] [mg/kg] | further results
1 | 416 | 1976 | 3400 | CN(C)CCCCOc1ccc(CCc2ccccc2)cc1 | – | –
2 | 37.6 | 377 | 1150 | CN(C)CCCCCOc1ccccc1CCc1ccccc1 | – | –
3 | – | – | – | Clc1ccccc1CN1CCc2sccc2C1 [TICLOPIDINE] | 120 | –
4 | – | – | 1400 | NC(=O)C1CCCN(CCCCOc2ccccc2CCc2ccccc2)C1 (centres undefined) | – | –
5 | – | – | 900 | CCOc1ccccc1CCc1ccccc1OCCCCN(C)C | – | –
6 | – | – | 1400 | CN(CCO)CCCCOc1ccccc1CCc1ccccc1 | – | –
7 | – | – | 29000 | CN(CCCCOc1ccccc1CCc1ccccc1)CC(=O)O | – | –
8 | – | – | 1500 | CN(C)CCCCOc1ccccc1CCc1ccccc1C(=O)O | – | –
9 | – | – | 13000 | CN(CCCCOc1ccccc1CCc1ccccc1)CCCC(=O)O | – | –
10 | 6.33 | 96.2 | 670 | CN(C)CCOc1ccccc1CCc1ccccc1 | – | –
11 | – | – | 2400 | NC(=O)C1CCN(CCCCOc2ccccc2CCc2ccccc2)CC1 | – | –
12 | – | – | 890 | OC1CCN(CCCCOc2ccccc2CCc2ccccc2)CC1 | – | –
13 | 67.6 | 974.6 | 3200 | CCCCN(C)CCCCOc1ccccc1CCc1ccccc1 | – | –
14 | – | – | 2400 | c1ccc(CCc2ccccc2OCCCCN2CCCCC2)cc1 | – | –
15 | – | – | 6200 | O=C(O)C1CCN(CCCCOc2ccccc2CCc2ccccc2)CC1 | – | –
16 | 70.6 | 156.5 | 4500 | CNCCCCOc1ccccc1CCc1ccccc1 | – | –

Row | Ki [1] [nM] | IC50 [2] [nM] | IC50 ([3]; read-out: IC50) [nM] | Compound | ED50 [4] [mg/kg] | further results
17 | – | – | 700 | CCN(CC)CCCCOc1ccccc1CCc1ccccc1 | – | –
18 | 517 | 3328.3 | 19000 | CN(C)CCCCOc1cccc(CCc2ccccc2)c1 | – | –
19 | 74.9 | 152.4 | 1700 | CN(C)CCCCCCOc1ccccc1CCc1ccccc1 | – | –
20 | 13.9 | 54.8 | 1200 | CN(C)CC(O)COc1ccccc1CCc1ccccc1 (centres undefined) | – | –
21 | – | – | 2000 | c1ccc(CCc2ccccc2OCCCCN2CCNCC2)cc1 | – | –
22 | – | – | 19000 | c1ccc(CCc2ccccc2OCCCCN2CCOCC2)cc1 | – | –
23 | – | – | 960 | CN(C)CCCCOc1ccccc1CCc1ccccc1O | – | –
24 | 198 | 4479 | > 50000 | CN(CCCCOc1ccccc1CCc1ccccc1)Cc1ccccc1 | – | –
25 | – | – | > 50000 | NCCCCOc1ccccc1CCc1ccccc1 | – | –
26 | – | – | – | CC(=O)Oc1ccccc1C(=O)O [ASPIRIN] | – | IC50 [3]: 23000 nM
27 | 4.55 | 33.8 | 540 | CN(C)CCCOc1ccccc1CCc1ccccc1 | – | –
28 | – | – | 2200 | OCCN1CCN(CCCCOc2ccccc2CCc2ccccc2)CC1 | – | –
29 | – | – | 1200 | Cc1ccccc1CCc1ccccc1OCCCCN(C)C | – | –
30 | – | – | 18000 | O=C(O)C1CCCN1CCCCOc1ccccc1CCc1ccccc1 (centres undefined) | – | –
31 | – | – | > 50000 | CN(CCCCOc1ccccc1CCc1ccccc1)c1ccccc1 | – | –
32 | – | – | 620 | c1ccc(CCc2ccccc2OCCCCN2CCCC2)cc1 | – | –

Row | Compound | Ki [1] [nM] | IC50 [2] [nM] | IC50 ([3]; read-out: IC50) [nM] | ED50 [4] [mg/kg] | further results
33 | COc1cccc(CCc2ccccc2OCCCCN(C)C)c1.Cl | 13.1 | 62.2 | 530 | 19 | –
34 | COc1ccccc1CCc1ccccc1OCCCCN(C)C.Cl | – | – | 600 | 45 | –
35 | CN(C)CCCOc1ccccc1CCc1ccc(Cl)c(Cl)c1 | – | – | 580 | 94 | –
36 | COc1cccc(CCc2ccccc2)c1OCCCCN(C)C | – | – | 2300 | – | ED50 [5]: 40 mg/kg
37 | CN(C)CCCOc1ccccc1CCc1ccc(N(C)C)cc1.Cl | 23.3 | 53.6 | 310 | 130 | –
38 | CN(C)CC(COc1ccccc1CCc1ccccc1)OCC(=O)O (centres undefined) | – | – | 3600 | 24 | –
39 | CN(C)CCCCOc1ccccc1CCc1ccc(F)cc1.Cl | – | – | 760 | > 50 | –
40 | COc1cccc(CCc2ccccc2OCC(CN(C)C)OC(=O)CCC(=O)O)c1.Cl (centres undefined) [SARPOGRELATE HYROCHLORIDE] | 17.8 | 51.3 | 970 | 24 | –
41 | CN(C)CCCOc1ccccc1CCc1ccc(Cl)cc1.Cl | – | – | 540 | > 50 | –
42 | CN(C)CCCCOc1ccccc1CCc1cccc(F)c1.Cl | – | – | 480 | 27 | –
43 | CN(C)CCCCOc1ccccc1CCc1ccccc1 | 9.78 | 115.4 | 700 | – | ED50 [5]: 26 mg/kg
44 | CN(C)CC(COc1ccccc1CCc1cccc(Cl)c1)OC(=O)CCC(=O)O (centres undefined) | – | – | 800 | 27 | –
45 | COc1cccc(CCc2ccccc2OCC(O)CN(C)C)c1 (centres undefined) | 1.16 | 12.5 | 480 | 29 | –
46 | CN(C)CCCOc1ccc(Cl)cc1CCc1ccccc1 | 25.7 | 881.4 | 2500 | – | ED50 [5]: 21 mg/kg
47 | CN(C)CC(COc1ccccc1CCc1ccccc1)OC(=O)CCC(=O)O (centres undefined) | – | – | 2200 | 27 | –
48 | CN(C)CCCCOc1ccccc1CCc1ccccc1Cl.Cl | – | – | 500 | 50 | –
49 | CN(C)CCCCOc1ccccc1CCc1cccc(Cl)c1.Cl | – | – | 530 | 27 | –
50 | CN(C)CC(COc1ccccc1CCc1cccc(F)c1)OC(=O)CCC(=O)O (centres undefined) | 41.3 | 132.5 | 1200 | 27 | –
51 | CN(C)CC(COc1ccccc1CCc1ccccc1)OCCC(=O)O (centres undefined) | – | – | 3300 | 25 | –
